Measured values as given in patent US20100203614A1, “FATTY ALDEHYDE REDUCTASE” (Utah State University, priority 2009, published 2010).
Several values for one entry are separate records, joined by “and”; a condition that tells them apart may be missing. Identical values can stand only once. Entries after “also recorded” stand apart in the source; their conditions may differ. Counter-ions that a name gives are not always drawn. Like-named read-outs stand apart in the source and are kept apart here. Blank lines part the entries; values can stand above or below the molecule they belong to.

How the values were obtained:
MBP-FALDR fusion protein = experiment: Inhibition of decanal reduction by MBP-FALDR in the presence of NADPH; assay type: biochemical, Marinobacter aquaeolei VT8; conditions: for Percent Activity: 100 mM MES pH 6.5, 200 μM NADPH, 250 μM decanal, 125 μg MBP-FALDR, activity remaining vs no inhibitor; for effect on decanal reduction in words: tested at 1.0 mM
Method: (§1) For Fatty Aldehyde Continuous Spectrophotometric Assay Development, all assays were performed in a sealed quartz cuvette with a 1 cm path length. The cuvette and solutions were first degassed with argon on a manifold to remove oxygen from the headspace and solutions. Substrates were initially disbursed into a buffer solution containing BSA at a concentration of 0.5 mg/mL by sonication for three ten second intervals using a microtip sonicator (Branson, Danbury, Conn.). The initial assay for pH optimization included a buffer of 100 mM MOPS, 100 mM MES, and 100 mM TAPS. For reduction assays, 75 μL of a 2 mg/mL NADPH stock was added to bring the initial concentration of NADPH in the cuvette to approximately 200 μM, and an approximate absorbance at 340 nm of 1.2 based on the reported extinction coefficient of 6220 M^−1 cm^−1 for NADPH. In all assays, the reaction was run for at least two minutes with the NADPH and substrate present, prior to the addition of any enzyme, to obtain a background oxidation rate of the NADPH.
Finally, the ability of decanol to inhibit reduction of decanal was also tested.
Referring again to Table 2, the inhibition assays were run in 100 mM MES buffer pH 6.5 with 200 μM NADPH, 250 μM decanal and 125 μg of MBP-FALDR fusion protein. All compounds were dissolved in buffer except dipyridyl, which was dissolved in dimethyl sulfoxide (DMSO).

[1] = test system: MBP-FALDR enzyme (maltose binding protein-fatty aldehyde reductase fusion protein); experiment: Continuous spectrophotometric assay of fatty aldehyde reductase activity (NADPH oxidation at 340 nm), substrate comparison and kinetics; assay type: biochemical, Marinobacter aquaeolei VT8; conditions: for substrate activity in words: compared with decanal; for substrate activity in words / Relative Activity (Percent of Decanal): substrate 100 μg/mL; for Relative Activity (Percent of Decanal): 160 μg enzyme, decanal = 85 nmols/min/mg = 100; for Km: substrate of MBP-FALDR, NADPH, FIG. 2 substrate is cis-11-hexadecenal
Method: as §1, with “the NADPH. […] A linear fit of the data was then used to establish the rate, and the initial background rate was subtracted, to determine the rate associated with substrate reduction by the MBP-FALDR enzyme.” for “the NADPH.”
Having established that the MBP-FALDR would utilize NADPH as a substrate, it was possible to employ a continuous spectrophotometric assay to monitor substrate reduction rates based on the loss of absorbance at 340 nm when NADPH is oxidized to NADP^+. Using this assay, it was possible to establish the pH dependence of the reduction reaction. The rate of reaction was highest at pH 6.3, with a steep increase in activity going from 8.0 to 6.3. The rate at 6.3 was only slightly greater than at 6.5 ([…]). Several factors had to be considered in establishing the optimal pH of the assay. The first was the background oxidation of the NADPH without any MBP-FALDR enzyme present. […] The assays were run under an argon atmosphere to minimize oxidation of the NADPH by O2. A further consideration was the rapid degradation that occurs at the lowest pH values. […] So, for standard assays used here, a pH of 6.5 was selected, where the activity was minimally affected by slight variations in pH. The following discussion is useful in understanding some features and benefits of the various embodiments of the invention:
Utilizing the continuous assay to monitor MBP-FALDR activity, the dependence of rate on substrate concentration was determined for all of the commercially available substrates described above. Each assay was repeated multiple times to confirm the results from each single determination. The results obtained for cis-11-hexadecenal are shown in FIG. 2 and are representative of the results obtained for repeated determinations and for the other substrates. […] In addition, several factors could limit the observed activity. All of the substrates tested have limited solubility in aqueous solutions, and must first be suspended in solution via sonication. Even under these conditions, it is likely that the substrates exist inside micelles. The sonication process utilized here could result in the partial degradation of the substrate over time. Additionally, the suspension of the substrate in solution is only temporary, and the substrate slowly separates from aqueous solution. Due to these limitations, the measured activity is likely to be an underestimate of the actual activity. In the cell, the enzyme and substrate are likely associated with the hydrophobic membranes. […] It was also observed that the MBP-FALDR enzyme was unstable over time, even when stored at 4° C., losing as much as 50% of the activity over a period of a week. Though the purification is quite rapid, it is uncertain how much activity is lost during preparation. […]

[2] = molecular target: Marinobacter aquaeolei VT8 fatty aldehyde reductase (SEQ ID NO: 2) as maltose binding protein-fatty aldehyde reductase fusion protein (MBP-FALDR), SEQ ID NO: 3 (Marinobacter nauticus, UniProt A1U2T0); experiment: Inhibition of decanal reduction by MBP-FALDR; assay type: biochemical; conditions: for effect on activity (in words): 1.0 mM
Method: as §1, with “the NADPH. […] A linear fit of the data was then used to establish the rate, and the initial background rate was subtracted, to determine the rate associated with substrate reduction by the MBP-FALDR enzyme.” for “the NADPH.”
To probe the possible mechanism of the fatty aldehyde reducatase enzyme comprising the amino acid sequence of SEQ ID NO: 2, applicants again used the MBP-FALDR enzyme and some potential chemical inhibitors were tested for effects on the reduction of decanal by the MBP-FALDR enzyme in the presence of NADPH. In all cases, the compound was tested initially at concentrations of 1.0 mM, and if a significant inhibition was found, lower concentrations were also tested (Table 2). […] At higher concentrations, this was difficult to assess fully, as the dithionite interferes with the absorbance at 340 nm where activity is measured. […] This could be an indication of an active site residue or cofactor that is susceptible to reduction. […] This would indicate that if a transition metal is involved in the catalysis, it is not readily accessible to such chelators. Finally, the ability of decanol to inhibit reduction of decanal was also tested.
Certain embodiments of the invention may be characterized, in part, by the inhibition of the reduction of decanal by a fatty aldehyde reductase enzyme comprised by an amino acid sequence at least 90% identical to the amino acid sequence of SEQ ID NO: 2.
Referring again to Table 2, the inhibition assays were run in 100 mM MES buffer pH 6.5 with 200 μM NADPH, 250 μM decanal and 125 μg of MBP-FALDR fusion protein. All compounds were dissolved in buffer except dipyridyl, which was dissolved in dimethyl sulfoxide (DMSO). […] Activity is reported as the activity remaining in the presence of each compound as a percentage of the activity without any inhibitor present. *Not determined. Each compound was tested multiple times to confirm reproducibility. The remaining activity presented here is the result from a single set of data.

MBP-FALDR enzyme = experiment: Initial assessment of activity: overnight reaction with NADPH/NADH or NADP+, GC/GC-MS analysis; assay type: biochemical, Marinobacter aquaeolei VT8; conditions: with NADP+
Method: For initial assessment of the activity of the purified MBP-FALDR enzyme, 50 μg of purified MBP-FALDR protein was added to a reaction mixture containing 100 mM of Tris buffer at pH 7.9, 100 mM NaCl, 2.4 mM of either NADPH or NADH as a reductant, and decanal, oleic acid, and hexadecanol as possible substrates. The assays were run under an argon atmosphere in septa sealed vials overnight at room temperature with constant gentle mixing. The products of the reactions were then extracted from the buffer by adding an equal volume of hexane and organic layer components were analyzed by gas chromatography equipped with a flame ionization detector (Forte HT5 column (SGE Analytical Science, Austin, Tex.), 30 meter by 0.32 mm inner diameter with 0.5 μm film thickness, with argon as a carrier and a temperature ramp from 60° C. to 360° C. increasing at 10° C. per minute). Samples containing new peaks not present in a control sample were also run through a gas chromatograph equipped with a mass spectrometer (Shimadzu GC-2010 and GCMS-QP2010S) to assign the identity of the product.
Preliminary experiments were run with the MBP-FALDR enzyme to probe possible substrates by mixing either NADH or NADPH with an aldehyde (decanal), alcohol (hexadecanol) or fatty acid (oleic acid) and then looking for changes in concentration of one or more of the potential substrates by GC analysis. The assays were allowed to run overnight in a sealed vial under an atmosphere of argon to maintain the reduced forms of the nicotinamide coenzymes. […] This initial result pointed to the likelihood that the MBP-FALDR enzyme is an NADPH-dependent fatty aldehyde reductase, and further experiments were run to characterize this activity. […] The activity of medium chain alcohol dehydrogenases from a broad range of species show rates of oxidation of alcohols that are 10% of the rates of the reduction of the corresponding aldehyde, so it is possible that this rate is too low to detect.

[3] = reduction of decanal with NADPH

SMILES: O[C@H](CS)[C@H](O)CS (racemic) [Dithiothreitol]
- Percent Activity (MBP-FALDR fusion protein; inhibitor 1.0 mM): 76%

SMILES: O=C1O[C@H]([C@@H](O)CO)C(O)=C1O [Ascorbic Acid]
- Percent Activity (MBP-FALDR fusion protein; inhibitor 1.0 mM): 76%

SMILES: O=Cc1ccccc1 [Benzaldehyde]
- substrate activity in words [1]: no apparent activity
- Relative Activity (Percent of Decanal) [1]: <1% of Decanal

- substrate activity in words [1]: no apparent activity
- Relative Activity (Percent of Decanal) [1]: <1% of Decanal
SMILES: CCCC=O [Butanal]

SMILES: c1ccc(-c2ccccn2)nc1 [Dipyridyl]
- Percent Activity (MBP-FALDR fusion protein; inhibitor 0.25 mM): 59%
- Percent Activity (MBP-FALDR fusion protein; inhibitor 1.0 mM): 46%
- effect on decanal reduction in words (MBP-FALDR fusion protein): moderate inhibition
- effect on activity (in words) [2, 3]: only a moderate inhibition of activity

SMILES: O=S(O)S(=O)O [Dithionite]
- Percent Activity (MBP-FALDR fusion protein; inhibitor 0.25 mM): 8%
- Percent Activity (MBP-FALDR fusion protein; inhibitor 1.0 mM): 25%
- effect on decanal reduction in words (MBP-FALDR fusion protein): significant decrease in activity
- Percent Activity (activity remaining in presence of inhibitor) ([2]; 0.25 mM inhibitor, 100 mM MES pH 6.5, 200 μM NADPH, 250 μM decanal, 125 μg MBP-FALDR, % of activity without inhibitor): 8%
- inhibition (in words) ([2]; 250 μM, reduction of decanal with NADPH, compared with higher concentration): the inhibition is more pronounced
- Percent Activity (activity remaining in presence of inhibitor) ([2]; 1.0 mM inhibitor, 100 mM MES pH 6.5, 200 μM NADPH, 250 μM decanal, 125 μg MBP-FALDR, % of activity without inhibitor): 25%
- effect on activity (in words) [2, 3]: significant decrease in activity

- substrate activity in words [1]: activity was lower
- Relative Activity (Percent of Decanal) [1]: 55% of Decanal
- Km ([1]; Michaelis-Menten fit): ~200 µM
SMILES: CCCCCCCCCCCC=O [Dodecanal]

SMILES: CCCCCCCCCCCCO [Dodecanol]
- Percent Activity (MBP-FALDR fusion protein; inhibitor 0.25 mM): 55%
- Percent Activity (MBP-FALDR fusion protein; inhibitor 1.0 mM): 54%

SMILES: O=C(O)CN(CCN(CC(=O)O)CC(=O)O)CC(=O)O [EDTA (Disodium Salt)]
- effect on activity (in words) [2, 3]: little effect on the activity
- inhibition at 1000 µM ([2]; pH 6.5, read-out: Percent Activity (activity remaining in presence of inhibitor)): 81%

- substrate activity in words [1]: no apparent activity
- Relative Activity (Percent of Decanal) [1]: <1% of Decanal
SMILES: CCCCCC=O [Hexanal]

- Relative Activity (Percent of Decanal) [1]: 52% of Decanal
- Km ([1]; Michaelis-Menten fit): ~750 µM
SMILES: CCCCCCCC=O [Octanal]
- substrate activity in words [1]: approximately half the activity obtained for decanal

- Vmax (maximum velocity) ([1]; Michaelis-Menten fit, substrate cis-11-hexadecenal (FIG. 2)): 63 nmol/min/mg
- Relative Activity (Percent of Decanal) [1]: 87% of Decanal
- Km ([1]; Michaelis-Menten fit): ~177 µM and 177 µM
SMILES: CCCC/C=C\CCCCCCCCCC=O [cis-11-hexadecenal]
- substrate activity in words [1]: slightly lower than that obtained for decanal; also recorded: activity comparable to decanal

- reverse reaction: aldehyde production by GC (MBP-FALDR enzyme): no detectable levels
SMILES: CCCCCCCCCCCCCCCCO [hexadecanol]

- inhibition at 1000 µM ([2]; 1.0 mM inhibitor, 100 mM MES pH 6.5, 200 μM NADPH, 250 μM decanal, 125 μg MBP-FALDR, % of activity without inhibitor, read-out: Percent Activity (activity remaining in presence of inhibitor)): 75%
SMILES: OCCS [β-Mercaptoethanol]
